Assay results: PMC3976407, “Inhibition of Fatty Acid Binding Proteins Elevates Brain Anandamide Levels and Produces Analgesia” (PLoS ONE, 2014)

Legend:
HeLa cells = assay: Cytotoxicity, MTT colorimetric assay; format: cell-based; settings: 24 hr incubation, n = 3
Experimental: Cytotoxicity of the FABP inhibitors SBFI26 and BMS309403 were examined using the MTT [3-(4,5-dimethylthiazol-2-yl)-2,5 diphenyl tetrazolium bromide] colorimetric assay. HeLa cells were seeded into 96-well plates (15,000 cells/well) and incubated for 24 hours at 37°C in DMEM supplemented with 10% FBS, penicillin (100 U/mL) and streptomycin (100 μg/mL). The cells were subsequently washed with PBS and treated with serum-free DMEM containing 10 nM to 1 mM SBFI26, BMS309403, or 5 mM hydrogen peroxide as a positive control. Following a 24 hr incubation, the cells were washed with PBS and treated with MTT (0.5 mg/mL in PBS) for 4 hrs. The cells were subsequently solubilized using DMSO and the absorbance was read at 562 nm in a microplate reader.

FABP5 [1] = biological target: T1, FABP5 (Homo sapiens, UniProt Q01469); parameters: method as in PMID 22170058; settings: determined previously ref 9; cited from earlier work
FABP3 [2] = biological target: T2, FABP3 (Homo sapiens, UniProt P05413); parameters: method as in PMID 22170058; settings: determined previously ref 9; cited from earlier work
FABP7 [3] = biological target: T3, FABP7 (Homo sapiens, UniProt O15540); parameters: method as in PMID 22170058; settings: determined previously ref 9; cited from earlier work
[4] = test system: acetic acid-induced writhing in mice; assay: Acetic acid-induced writhing; format: in vivo, mouse; settings: for Effect upon acetic acid-induced writhing: 20 mg/kg, subcutaneous, 60 min before acetic acid
Experimental: Mice were acclimated to the laboratory environment for at least two hours and were habituated to the testing chamber for 30 min prior to acetic acid challenge. SBFI26, SBFI50, SBFI60, and SBFI62 (20 mg/kg) were administered via the subcutaneous route 60 min before acetic acid. Rimonabant, SR144528, GW6471, and naloxone were given 10 min before the inhibitors via the subcutaneous route. The mice subsequently received an i.p. injection of acetic acid (0.6% in sterile saline, 10 μl/g) and were placed in observation chambers. Abdominal stretches (marked by extension of the body and hind limbs) were counted for 20 min starting at 5 min post-injection.

[5] = test system: formalin-induced nociception in mice; assay: Formalin test; format: in vivo, mouse; settings: 20 mg/kg, i.p.; for Effect upon first phase of formalin-induced nociception: first phase 0–5 min
Experimental: Mice were habituated to the observation chamber (Plexiglas box, 25 cm×25 cm×25 cm) for 30 min prior to formalin injection. Mice were administered FABP inhibitors 60 min prior to formalin. The animals subsequently received an injection of formalin (2.5% in saline, 20 μl) into the plantar surface of the right hind paw using a 30 gauge needle and were immediately placed back into the observation chamber and nocifensive behavior (time spent licking or biting the paw) was recorded for 60 min. Nocifensive behavior was scored during the first phase (0–5 min) and the second phase (∼15–45 min) of the formalin test.

FABP3 [6] = biological target: T2, FABP3; assay: NBD-stearate fluorescence displacement binding
Experimental: (§1) Inhibitory constant (Ki) values were elucidated utilizing NBD-stearate fluorescence displacement as described previously [9], [31]. The tests were performed in 96-well plates containing inhibitors (0.1 – 50.0 μM), FABP, and NBD-stearate. Fluorescence intensity was measured with a FLUOstar OPTIMA spectrofluorometer with excitation and emission wavelengths of 460 and 544 nm, respectively.

FABP5 [7] = biological target: T1, FABP5; assay: NBD-stearate fluorescence displacement binding; settings: averages ± S.E. of three independent experiments
Experimental: Inhibitory constant (Ki) values were elucidated utilizing NBD-stearate fluorescence displacement as described previously, [31]. The tests were performed in 96-well plates containing inhibitors (0.1 – 50.0 μM), FABP, and NBD-stearate. Fluorescence intensity was measured with a FLUOstar OPTIMA spectrofluorometer with excitation and emission wavelengths of 460 and 544 nm, respectively.

FABP7 [8] = biological target: T3, FABP7; assay: NBD-stearate fluorescence displacement binding
Experimental: as §1

rats subjected to CCI = assay: Rat neuropathic pain model (chronic constriction injury of the sciatic nerve); format: in vivo; settings: 20 mg/kg i.p.
Description: Male Fisher 344 rats were habituated and pre-injury evoked responses were obtained. The Hargreaves test was used to assess thermal hyperalgesia. Briefly, plexiglass enclosures were set atop a plexiglass platform and infrared source set at 50% power located under the platform was used as the heat stimulus (Ugo Basile). A 200 mW, 535 nm diode laser was mounted in an adjustable stand placed beneath the plexiglass platform, and was used as an alternative heat stimulus for some of the animals in this study. The latency time to hind paw lift during heating of the plantar surface was recorded. Five recordings were obtained on each hind paw with at least 2 min rest between measurements. The maximum time for exposure to the infrared or diode laser source was 30.5 s to avoid any possible tissue injury. For mechanical threshold measurements, the animal enclosures rested on a screen with mesh of 0.5 cm spacing. Following acclimation, an electronic von Frey Anesthesiometer (IITC Life Sciences) was applied with increasing pressure to the plantar surface of the hind paw until the animals lifted the hind paw. The number of grams of force applied by the probe to induce withdrawal was recorded. Five recordings were obtained on each hind paw with at least 3 min between measurements. For CCI surgeries, our procedure closely followed that reported previously. Briefly, each animal received an i.p. injection of ketamine/xylazine (75 mg/kg and 10 mg/kg, respectively). The hind leg was surgically prepped and the anesthetized animal placed prone on an sterile towel over a heating pad. The temperature was monitored rectally. A skin incision was made mid-thigh with a medium curved scalpel and then scissors were used to expose the sciatic nerve. Approximately 1 cm of the main trunk proximal to the trifuraction was isolated and 4 strands of 4-0 chromic gut were tied around the nerve ∼ 1 mm apart under magnification. In a modification of the original method, a 2-0 prolene strand was placed between the nerve and the gut to which the suture was tightened. The prolene strand was then removed. This prevented over tightening and reduced subsequent motor paralysis. The muscle layers were then reopposed and sutured, and surgical staples were used to close the skin. On post-injury days 7 through 10, heat and mechanical measurements were obained for the ipsilateral hindpaw of each CCI animal. Immediately following the post-injury measurements, animals were randomized and received i.p. injections of vehicle or 20 mg/kg SBI26 (DMSO:cremophor:sterile saline 1∶1∶2 by volume). Up to 0.8 ml of drug or vehicle was injected. The observer was blinded as to administration of drug or vehicle. Thermal and mechanical measurements were performed at 1 and 4 h post-injection. Data were normalized to pre-injury baseline measurements for each animal.

[9] = test system: carrageenan-induced thermal hyperalgesia and paw edema in mice; assay: Carrageenan-induced paw edema and thermal hyperalgesia; format: in vivo, mouse; settings: 20 mg/kg, i.p.
Experimental: Paw edema was induced by injecting 1% λ-carrageenan (20 μl, in sterile saline) into the plantar surface of the left hind paw using a 30 gauge needle attached to a glass syringe (Hamilton Company). Paw diameters were measured before carrageenan injection and 4 or 24 hours after injection using digital electronic calipers (Fisher) and expressed to the nearest ± 0.01 mm. SBFI26, SBFI50, SBFI60, and SBFI62 were dissolved in DMSO:cremophor-EL:saline (4% DMSO:10% Cremophor-EL) and administered (20 mg/kg, i.p.) 60 min prior to injection of carrageenan. Receptor antagonists were injected 10 min before the inhibitors. Rimonabant and SR144528 (3 mg/kg, i.p.) were dissolved in ethanol:cremophor-EL:saline (1∶1∶18) while GW6471 (4 mg/kg, i.p.) was dissolved in DMSO:cremophor-EL:saline (2% DMSO:5% Cremophor-EL). Edema is reported as the change in paw diameter at 24 hr compared to the baseline. Thermal hyperalgesia was measured using the Hargreaves plantar apparatus (Ugo Basile) as previously reported.

T1 sequence (Q01469 whole entry, species assumed): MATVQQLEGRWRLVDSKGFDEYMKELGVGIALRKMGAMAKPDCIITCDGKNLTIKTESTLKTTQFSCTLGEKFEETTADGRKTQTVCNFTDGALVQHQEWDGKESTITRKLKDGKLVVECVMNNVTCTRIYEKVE
T3 sequence (O15540 whole entry, species assumed): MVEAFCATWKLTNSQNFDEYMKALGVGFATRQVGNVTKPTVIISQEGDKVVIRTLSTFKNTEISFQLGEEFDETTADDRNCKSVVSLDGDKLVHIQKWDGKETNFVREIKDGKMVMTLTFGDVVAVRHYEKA
T2 sequence (P05413 whole entry, species assumed): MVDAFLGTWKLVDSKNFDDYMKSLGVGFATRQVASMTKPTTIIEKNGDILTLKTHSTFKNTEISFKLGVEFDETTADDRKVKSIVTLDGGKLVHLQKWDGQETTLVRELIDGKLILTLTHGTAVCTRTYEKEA

Ki (FABP3 [6])	Ki (FABP5 [7])	Ki (FABP7 [8])	SMILES	Effect upon acetic acid-induced writhing [4]	Effect upon first phase of formalin-induced nociception [5]	Effect upon carrageenan-induced paw edema [9]	Effect upon carrageenan-induced thermal hyperalgesia [9]	also measured
–	–	–	CCc1c(-c2ccccc2)c(-c2ccccc2)nn1-c1ccccc1-c1cccc(OCC(=O)O)c1 [BMS309403, reference compound]	–	–	–	–	Cytotoxicity _50 values (HeLa cells): 11.3 ± 0.9 µM
–	–	–	CCCCCCC(CCCCCCCCCCC(=O)O)N(C)c1ccc([N+](=O)[O-])c2nonc12 (centres unmarked) [NBD-stearate, 12-N-methyl-(7-nitrobenz-2-oxa-1,3-diazo)aminostearicacid]	–	–	–	–	Kd (FABP5 [1]): 0.16 µM; Kd (FABP3 [2]): 0.18 µM; Kd (FABP7 [3]): 0.22 µM
–	–	–	O=C(Nc1cccnc1)N1CCC(Cc2cccc(Oc3ccc(C(F)(F)F)cn3)c2)CC1 [PF-3845, reference compound]	–	–	–	–	Antinociceptive effects in the acetic acid test after pretreatment with CB1 antagonist rimonabant ([4]; rimonabant 3 mg/kg 10 min before inhibitor): blocked
3.5 ± 0.3 µM	1.3 ± 0.2 µM	0.6 ± 0.1 µM	O=C(O)C1C(c2ccccc2)C(C(=O)Oc2ccc3ccccc3c2)C1c1ccccc1 (stereo not drawn) [SBFI50, alpha-2,4-diphenylcyclobutane-1,3-dicarboxylic acid mono-2-naphthyl ester]	without effect	reduced	reduced	reduced	Effect on mechanical thresholds in CCI rats (rats subjected to CCI; 1 and 4 h): Neither compound altered; Effect on thermal hyperalgesia in CCI rats (rats subjected to CCI; measured 1 and 4 h post-injection): without effect
> 10 µM	1.6 µM	0.3 µM	O=C(O)C1C(c2ccccc2)C(C(=O)Nc2cccc3ccccc23)C1c1ccccc1 (stereo not drawn) [SBFI60, alpha-2,4-diphenylcyclobutane-1,3-dicarboxylic acid mono-1-naphthyl amide]	without effect	reduced	without effect	without effect	–
2.6 ± 1.1 µM	3.3 ± 0.7 µM	6.1 ± 0.5 µM	O=C(Nc1cccc2ccccc12)C1C(c2ccccc2)C(C(=O)Nc2cccc3ccccc23)C1c1ccccc1 (centres unmarked) [SBFI62, 2,4-diphenylcyclobutane-1,3-dicarboxylic acid di-1-naphthyl amide]	without effect	without effect	without effect	without effect	Effect upon second phase of formalin-induced nociception ([5]; second phase ∼15–45 min): without effect
